Values joined by “and” are separate entries in the source; they are usually repeats but may differ in a detail not shown here. Equal entries are not always repeated. Where no end group is shown, it is not given here.
Tests used:
[1] = system: normal conscious sheep; experiment: Plasma cGMP (RIA) and cAMP (ELISA) responses to stepped OSTN infusion; format: in vivo; conditions: sheep n = 8, mean ± SD
Description: (§1) Sheep received I.V. infusions of increasing doses of ovine proOSTN (83–133), the putative 51 aa circulating peptide (at 2.5, 25 and 250 pmol/kg/min for 1 h each; Mimotopes, Melbourne, Victoria, Australia) and a vehicle control (0.9% saline) administered on separate days, ≥1 day apart, in a balanced random order.
(§2) Venous blood samples were obtained at 30 min and immediately preceding commencement of the first infusion (baseline) and at 30 min intervals for the duration of the study day. Samples were taken into tubes on ice, centrifuged at 4°C and stored at −20°C before assaying. Following extraction over C18 SepPac cartridges (Waters Corp., Milford, MA, USA), plasma concentrations of cGMP (Charles et al., [1990]), ANP (Charles et al., [1990]), BNP (Pemberton et al., [1997]), CNP (Charles et al., [1995]) and N‐terminal proCNP (NTproCNP) (Wilson et al., [2015]), were measured by radioimmunoassay (RIA) as previously described. Non‐extracted plasma renin activity (PRA) (Dunn & Espiner, [1976]) and aldosterone (Lun et al., [1983]) were measured as previously described. Cyclic AMP was measured by enzyme‐linked immunosorbent assay (catalogue no. ADI‐900‐163; Enzo Life Sciences, Farmingdale, NY, USA). For each analyte, all samples from individual animals were measured in the same assay to avoid interassay variability. Haematocrit concentrations were measured with every blood sample taken.

[2] = system: normal conscious sheep; experiment: Plasma ANP, BNP, CNP and NTproCNP responses to stepped OSTN infusion (RIA); format: in vivo; conditions: for Plasma ANP / Plasma BNP / Plasma CNP: sheep n = 8, mean ± SD
Description: as §1, §2

[3] = system: normal conscious sheep; experiment: Haemodynamic and haematocrit responses to stepped OSTN infusion; format: in vivo; conditions: for Fall in mean arterial pressure (MAP) compared with time-matched vehicle control: sheep n = 8
Description: Eight Coopworth ewes (4–6 years; 42–60 kg; Lincoln University Farm, New Zealand) were instrumented under general anaesthesia (induced by 0.5 mg/kg diazepam I.V. and 4 mg/kg ketamine I.V. and maintained with a mixture of isoflurane and oxygen) and using approved peri‐ and postoperative antibiotics (20 mg/kg cephazolin I.V.; 6.6–20 mg/kg oxytetracycline I.V.) and analgesia (4 mg/kg carprofen I.V.). Sheep were instrumented via a 50‐mm‐long neck incision, allowing cannulation of the left carotid artery (16 gauge Angiocath; Becton Dickinson, Sandy, UT, USA) for direct measurement of mean arterial pressure (MAP) and heart rate (HR). A polyethylene catheter was placed in the left jugular vein for blood sampling and recording of central venous pressure (CVP). A Swan–Ganz thermodilution catheter (Edwards Life Sciences, Irvine, CA, USA) was placed in the pulmonary artery via the jugular vein for the measurement of cardiac output (CO). The urinary bladder was catheterized per urethra for timed urine collections (Charles, Espiner, Nicholls et al., [1996]). Animals recovered for ≥5 days before commencing the study protocol.
as §1
Haemodynamic measurements [HR, MAP, CVP and CO, and calculated total peripheral resistance (CTPR = MAP/CO)] were recorded at 30 min intervals in the hour preceding the first dose (baseline) and at 15, 30, 45 and 60 min during each infusion. […] Measurements were determined by online computer‐assisted analysis (PowerLab Systems; ADInstruments, Dunedin, New Zealand) and made with the animals standing quietly in their metabolic crates (Charles, Espiner, Nicholls et al., [1996]).
as §2

[4] = Plasma OSTN concentration, metabolic clearance rate and half-life during and after stepped I.V. infusion (OSTN RIA); format: in vivo, sheep; conditions: mean ± SD; for level at time molar at 1 h: sheep, sheep n = 8, RIA
Description: as §1, §2
Osteocrin concentrations in the infusate were measured to calculate the infusion rate and metabolic clearance rate (MCR) of the peptide (MCR = infusion rate/plateau − baseline level).
Human proOSTN (83–112) […] was iodinated using 0.5 mCi Na^125I in the presence of […] chloramine‐T in […] phosphate buffer, pH 7.5, for 20 s, followed by the addition of 50 mg cysteine, 25 mg BSA and 20 mg KI in […] buffer. The resulting mixture was loaded onto a 10 cm RP300 Brownlee column and eluted with a gradient from 0% to 60% acetonitrile in 49 mmol/L KH2PO4 buffer, pH 2.9, over 30 min at 1 mL/min, collecting 0.5 mL fractions. The fraction containing the major peak of radioactive [^125I]‐proOSTN (83–112) was used in the RIA. Peptide standards were made from synthetic human proOSTN (83–133) taking into account the purity data supplied. All standards, sample extracts, antisera and tracer solutions were made up in pH 7.4 assay buffer (0.1% BSA in 0.1 M phosphate buffer). Fifty microlitres of sample extract or 1−1000 pmol/L of human proOSTN (83–133) standard (all in duplicate) were incubated with 50 μL antiserum H‐028‐68 (Phoenix Pharmaceuticals) at a dilution of 1:20,000 for 24 h at 4°C, followed by addition of 50 μL of tracer solution [^125I]‐proOSTN (83–112) containing 3000 cpm for an additional 24 h at 4°C. Bound and free [^125I]‐proOSTN (83–112) were separated by a solid‐phase second antibody method (Sac‐Cell, Donkey‐Anti Rabbit; IDS, UK), and the radioactivity in the bound [^125I]‐proOSTN (83–112) pellet was measured in a PerkinElmer Wizard2 10‐Detector Gamma Counter. Ovine concentrations of OSTN were extrapolated from the human standards, taking into account ovine proOSTN (83–133) cross‐reactivity. Ovine proOSTN (83–112) cross‐reactivity in the ANP, BNP and CNP RIA was <0.005%.

[5] = end of 60 min OSTN infusion 2.5 pmol/kg/min
[6] = end of 60 min OSTN infusion 25 pmol/kg/min
[7] = end of 60 min OSTN infusion 250 pmol/kg/min

half-life ([4]; Coopworth, plasma, iv, normal sheep, after end of 250 pmol/kg/min infusion, samples at 1-15 min, read-out: Osteocrin plasma half-life): 5.7 ± 1.8 min | level at time molar at 1 h ([4]; Coopworth, plasma, iv, 2.5 pmol/kg/min, end of 60 min I.V. infusion at 2.5 pmol/kg/min): 0.0287 ± 0.008 nM | level at time molar at 1 h ([4]; Coopworth, plasma, iv, 25 pmol/kg/min, end of 60 min I.V. infusion at 25 pmol/kg/min): 0.48 ± 0.195 nM | level at time molar at 1 h ([4]; Coopworth, plasma, iv, 250 pmol/kg/min, end of 60 min I.V. infusion at 250 pmol/kg/min): 6.09 ± 0.75 nM | Osteocrin plasma half-life ([4]; normal sheep, after end of 250 pmol/kg/min infusion, samples at 1-15 min): ~6 min
Sequence: SFSGFGSPLDRLSAGSVSHKGKQRKVVDHPKRRFGIPMDRIGRNRLSNSRG [OSTN]
Plasma cAMP ([1]; 1 h, end of OSTN 2.5 pmol/kg/min I.V.): 11.5 ± 4.8 pmol/L | Plasma cAMP ([1]; 2 h, end of OSTN 25 pmol/kg/min I.V.): 11.6 ± 3.0 pmol/L | Plasma cAMP ([1]; 3 h, end of OSTN 250 pmol/kg/min I.V.): 12.9 ± 6.5 pmol/L | Plasma cAMP ([1]; 4 h, 1 h after end of infusions): 10.4 ± 7.1 pmol/L | Plasma cAMP ([1]; 5 h, 2 h after end of infusions): 10.7 ± 6.1 pmol/L | Plasma cGMP [1, 5]: 11.2 ± 5.1 nmol/L | Plasma cGMP [1, 6]: 19.0 ± 11.0 nmol/L | Plasma cGMP [1, 7]: 23.1 ± 9.7 nmol/L | Plasma ANP [2, 5]: 24.3 ± 10.1 pmol/L and 24 pmol/L | Plasma BNP [2, 5]: 2.0 ± 0.5 pmol/L | Plasma CNP [2, 5]: 1.21 ± 0.30 pmol/L and 1.2 pmol/L | Plasma ANP [2, 6]: 27.6 ± 10.2 pmol/L | Plasma BNP [2, 6]: 3.1 ± 0.9 pmol/L | Plasma CNP [2, 6]: 2.13 ± 0.50 pmol/L | Plasma ANP [2, 7]: 33.0 ± 14.2 pmol/L | Plasma BNP [2, 7]: 3.9 ± 2.3 pmol/L | Plasma CNP [2, 7]: 3.81 ± 1.30 pmol/L | Plasma NTproCNP ([2]; stepped OSTN infusions 2.5, 25, 250 pmol/kg/min vs vehicle, P = 0.064): no significant effect | Fall in mean arterial pressure (MAP) compared with time-matched vehicle control ([3]; end of 2.5 pmol/kg/min infusion period): ~2 mmHg | Fall in mean arterial pressure (MAP) compared with time-matched vehicle control ([3]; end of 25 pmol/kg/min infusion period): ~7 mmHg | Fall in mean arterial pressure (MAP) compared with time-matched vehicle control ([3]; end of 250 pmol/kg/min infusion period): ~12 mmHg | Heart rate (HR) ([3]; stepped OSTN infusions vs vehicle, P = 0.140): did not significantly alter | Calculated total peripheral resistance (CTPR) ([3]; stepped OSTN infusions vs vehicle, P = 0.356): did not significantly alter | Haematocrit ([3]; stepped OSTN infusions vs vehicle, P = 0.360): did not significantly alter | Cardiac output (CO) ([3]; stepped OSTN infusions vs vehicle, P = 0.546): did not significantly alter | Central venous pressure (CVP) ([3]; vs vehicle, P = 0.003, significant reductions at 25 and 250 pmol/kg/min): reduced
